Where a SMILES comes first, the peptide text is derived from it. Bridges are numbered along the chain shown (N, C = ends).
What was measured:
K. pneumoniae (CI 287) = experiment: Antimicrobial assay, broth microdilution MIC; type: cell-based, Klebsiella pneumoniae; conditions: Gram -, MH medium with NaCl, 24 h 37 °C, median of three independent triplicated experiments
Procedure: (§1) Bacterial test cultures were grown in the Mueller-Hinton (MH) medium at 37 °C to mid-log phase and then diluted with the 2 x MH medium supplemented with 1.8% NaCl. 50 µL of the bacterial suspension with a final cell concentration of 10^6 CFU/mL were added to aliquots of 50 µL of the peptide solutions and serially diluted with sterilized 0.1% bovine serum albumin in 96-well flat-bottom polystyrene microplates (Eppendorf, Hamburg, Germany). Bacterial cells were incubated for 24 h at 37 °C and 900 rpm on the plate thermoshaker (Biosan, Riga, Latvia). The minimum inhibitory concentrations (MIC) were determined as the lowest peptide concentration that prevented growth of a test microorganism observed as visible turbidity. The results were expressed as median values of three independent triplicated experiments. Assessment of antimicrobial activities of the recombinant PM III, other polyphemusins, and tachyplesins was conducted against Gram-negative (Escherichia coli ML-35p, Klebsiella pneumoniae (clinical isolate, CI 287), Pseudomonas aeruginosa PAO1) and Gram-positive (Staphylococcus aureus ATCC 29213, Staphylococcus aureus 209P, Bacillus subtilis B-886, Micrococcus luteus B-1314) bacteria.

S. aureus 209P = experiment: Antimicrobial assay, broth microdilution MIC; type: cell-based, Staphylococcus aureus; conditions: Gram +, MH medium with NaCl, 24 h 37 °C, median of three independent triplicated experiments
Procedure: as §1

S. aureus ATCC 29213 = experiment: Antimicrobial assay, broth microdilution MIC; type: cell-based, Staphylococcus aureus; conditions: S. aureus ATCC 29213, Gram +, MH medium with NaCl, 24 h 37 °C, median of three independent triplicated experiments
Procedure: as §1

human red blood cells = experiment: Hemolytic activity assay; type: cell-based; conditions: for hemolysis at the maximal concentration: 100 µM peptide, human red blood cells 4% (v/v) in PBS pH 7.4, 1.5 h 37 °C, 0.1% Triton X-100 = 100%
Procedure: Testing of the hemolytic activity of polyphemusins and tachyplesins was performed using fresh human red blood cells (hBRC). Permeabilization of erythrocyte cytoplasmic membrane results in lysis followed by the release of hemoglobin. hBRC were washed three times with phosphate buffered saline (PBS: 10 mM Na2HPO4, 1.76 mM K2HPO4, pH 7.4, containing […], and 2.7 mM KCl). Two-fold serial dilutions of the peptide solutions were added to 50 μL aliquots of hRBC in the 96-well microplate. The final hBRC concentration was of 4% (v/v) in each well, and the final volume of suspension was 100 μL. After incubation of suspensions for 1.5 h at 37 °C under stirring at 1000 rpm, centrifugation of plates was done at 700 g for 5 min. The supernatant 50 μL aliquots were then transferred into flat-bottomed 96-well microplates. The absorbance at 405 nm was measured in a microplate reader (Eppendorf, Hamburg, Germany), allowing the detection of hemoglobin release. 0.1% Triton X-100 caused a complete lysis of erythrocytes, thus hBRC treated with Triton X-100 were used as a positive control. […] The percentage of hemolysis was calculated using the following Equation (1):Hemolysis (%) = (OD405 sample − OD405 0% lysis control)/(OD405 100% lysis control − OD405 0% lysis control) × 100%(1)
The quantitative data resulted from two series of experiments were represented as average means with standard deviations. The experiments were carried out using hBRC obtained from human blood samples of independent donors.

P. aeruginosa PAO1 = experiment: Antimicrobial assay, broth microdilution MIC; type: cell-based, Pseudomonas aeruginosa; conditions: P. aeruginosa PAO1, Gram -, MH medium with NaCl, 24 h 37 °C, median of three independent triplicated experiments
Procedure: as §1

[1] = RP-HPLC retention time as measure of hydrophobicity; type: physicochemical; conditions: semi-preparative RP-HPLC, C18 column, linear gradient 5 to 80% (v/v) acetonitrile in water with 0.1% TFA within 1 h; used as indicator of hydrophobicity
From the text: The PM III IC50 values were lower than those determined for PM I and PM II. We speculate that the higher cytotoxicity of PM III might be due to its higher hydrophobicity. In comparison to other tested peptides, the retention time of PM III measured during RP-HPLC indicated its higher hydrophobicity (Table 1). […] Increased hydrophobicity of these analogs caused higher cytotoxic effects. […] Cell membranes contain different phospholipids, which sustain the amphipathic features due to the formation of hydrophilic and hydrophobic domains in the membrane structure. Well-known differences between the composition of bacterial and mammalian cell membranes provide the evidence for selectivity of the peptides’ action. Bacterial membranes predominantly consist of phosphatidylserine, phosphatidylglycerol, and cardiolipin having a net negative charge. Tumor cell bilayers are also enriched in anionic molecules, such as phosphatidylserine, sialylated gangliosides, O-glycosylated mucins, and heparin sulfate. In contrast, zwitterionic phospholipids—phosphatidylcholine, phosphatidylethanolamine, and sphingomyelin—are abundant in the cytoplasmic membranes of non-cancer mammalian cells. Electrically neutral normal mammalian membranes prevent their recognition by positively charged antimicrobial peptides, and binding to these membranes is enabled by hydrophobic interactions. Thus, modulation of hydrophobicity of antimicrobial peptides, and also peptoid molecules, may be followed by non-specific interaction with erythrocytes as it was shown in previously published studies. […] Suboptimal high hydrophobic properties may not only result in increased toxicity to erythrocytes, but even in a reduction of antibacterial activity. Several protegrin-1 synthetic analogs with different hydrophobicities were characterized earlier. The analog with substitutions of valine by leucine that was more hydrophobic than naturally occurring protegrin-1 and the analog with substitutions of valine by fluorinated leucine had the most hydrophobic properties than other tested peptides. […] Therefore, half-hemolysis concentration and IC50 effective concentration were in different ranges.

SMILES | MICs (K. pneumoniae (CI 287)) | MICs (S. aureus 209P) | MICs (S. aureus ATCC 29213) | hemolysis at the maximal concentration (human red blood cells) | MICs (P. aeruginosa PAO1) | RP-HPLC Retention Time [1] | HC50 relative to IC50 measured for the HL-60 cell line (human red blood cells; HC50 / IC50 (HL-60)) | half-hemolysis concentration (HC50) (human red blood cells; fresh human red blood cells 4% (v/v) in PBS pH 7.4, 1.5 h 37 °C, absorbance 405 nm, two independent series of triplicated experiments)
CC(C)[C@@H]1NC(=O)[C@H](CCCNC(=N)N)NC(=O)[C@H](Cc2ccccc2)NC(=O)[C@@H](NC(=O)[C@H](Cc2c[nH]c3ccccc23)NC(=O)[C@H](CCCNC(=N)N)NC(=O)[C@@H](N)CCCNC(=N)N)CSSC[C@@H](C(=O)N[C@@H](CCCNC(=N)N)C(=O)O)NC(=O)[C@H](CCCCN)NC(=O)[C@H](CCCNC(=N)N)NC(=O)[C@H](Cc2ccc(O)cc2)NC(=O)[C@@H]2CSSC[C@H](NC1=O)C(=O)N[C@@H](Cc1ccc(O)cc1)C(=O)N[C@@H](CCCNC(=N)N)C(=O)NCC(=O)N[C@@H](Cc1ccccc1)C(=O)N2 [PM I, polyphemusin I] (H-RRWCFRVCYRGFCYRKCR-OH; disulfide 4-17, 8-13 (inferred); N-terminus assumed) | 0.5 µM | 0.5 µM | 4 µM | ~ 45% | 0.5 µM | 35.5 min |  | 
CC(C)[C@@H]1NC(=O)[C@H](CCCNC(=N)N)NC(=O)[C@H](Cc2ccccc2)NC(=O)[C@@H](NC(=O)[C@H](Cc2c[nH]c3ccccc23)NC(=O)[C@H](CCCNC(=N)N)NC(=O)[C@@H](N)CCCNC(=N)N)CSSC[C@@H](C(=O)N[C@@H](CCCNC(=N)N)C(=O)O)NC(=O)[C@H](CCCCN)NC(=O)[C@H](CCCNC(=N)N)NC(=O)[C@H](Cc2ccc(O)cc2)NC(=O)[C@@H]2CSSC[C@H](NC1=O)C(=O)N[C@@H](Cc1ccc(O)cc1)C(=O)N[C@@H](CCCCN)C(=O)NCC(=O)N[C@@H](Cc1ccccc1)C(=O)N2 [PM II, polyphemusin II] (H-RRWCFRVCYKGFCYRKCR-OH; disulfide 4-17, 8-13 (inferred); N-terminus assumed) | 0.5 µM | 0.5 µM | 4 µM | ~ 30% | 0.5 µM | 35.4 min |  | 
CC(C)[C@@H]1NC(=O)[C@H](CCCNC(=N)N)NC(=O)[C@H](Cc2ccccc2)NC(=O)[C@@H](NC(=O)CNC(=O)[C@H](CCCNC(=N)N)NC(=O)[C@@H](N)CCCNC(=N)N)CSSC[C@@H](C(=O)N[C@@H](CCCNC(=N)N)C(=O)O)NC(=O)[C@H](CCCNC(=N)N)NC(=O)[C@H](CCC(N)=O)NC(=O)[C@H](Cc2ccccc2)NC(=O)[C@@H]2CSSC[C@H](NC1=O)C(=O)N[C@@H](Cc1ccc(O)cc1)C(=O)N[C@@H](CCCNC(=N)N)C(=O)NCC(=O)N[C@@H](Cc1ccccc1)C(=O)N2 [PM III, polyphemusin III] (H-RRGCFRVCYRGFCFQRCR-OH; disulfide 4-17, 8-13 (inferred); N-terminus assumed) | 2 µM | 2 µM | 16 µM |  | 0.5 µM | 36.2 min | 18 fold | 46 µM
CC[C@H](C)[C@@H]1NC(=O)CNC(=O)[C@H](CCCNC(=N)N)NC(=O)[C@H](Cc2ccc(O)cc2)NC(=O)[C@@H]2CSSC[C@H](NC1=O)C(=O)N[C@@H](Cc1ccc(O)cc1)C(=O)N[C@@H](CCCNC(=N)N)C(=O)N[C@@H](CCCNC(=N)N)C(=O)N[C@H](C(=O)N[C@@H](CCCNC(=N)N)C(=O)O)CSSC[C@H](NC(=O)[C@H](Cc1c[nH]c3ccccc13)NC(=O)[C@@H](N)CCCCN)C(=O)N[C@@H](Cc1ccccc1)C(=O)N[C@@H](CCCNC(=N)N)C(=O)N[C@@H](C(C)C)C(=O)N2 [TP I, tachyplesin I] (H-KWCFRVCYRGICYRRCR-OH; disulfide 3-16, 7-12 (inferred); N-terminus assumed) | 0.5 µM | 0.5 µM | 8 µM | 38% | 0.5 µM | 35.5 min |  | 
CC[C@H](C)[C@@H]1NC(=O)CNC(=O)[C@H](CCCNC(=N)N)NC(=O)[C@H](Cc2ccc(O)cc2)NC(=O)[C@@H]2CSSC[C@H](NC1=O)C(=O)N[C@@H](Cc1ccc(O)cc1)C(=O)N[C@@H](CCCNC(=N)N)C(=O)N[C@@H](CCCCN)C(=O)N[C@H](C(=O)N[C@@H](CCCNC(=N)N)C(=O)O)CSSC[C@H](NC(=O)[C@H](Cc1c[nH]c3ccccc13)NC(=O)[C@@H](N)CCCNC(=N)N)C(=O)N[C@@H](Cc1ccccc1)C(=O)N[C@@H](CCCNC(=N)N)C(=O)N[C@@H](C(C)C)C(=O)N2 [TP II, tachyplesin II] (H-RWCFRVCYRGICYRKCR-OH; disulfide 3-16, 7-12 (inferred); N-terminus assumed) | 1 µM | 0.5 µM | 8 µM | 33% | 0.5 µM | 35.9 min |  | 
CC[C@H](C)[C@@H]1NC(=O)CNC(=O)[C@H](CCCNC(=N)N)NC(=O)[C@H](Cc2ccc(O)cc2)NC(=O)[C@@H]2CSSC[C@H](NC1=O)C(=O)N[C@@H](Cc1ccc(O)cc1)C(=O)N[C@@H](CCCNC(=N)N)C(=O)N[C@@H](CCCCN)C(=O)N[C@H](C(=O)N[C@@H](CCCNC(=N)N)C(=O)O)CSSC[C@H](NC(=O)[C@H](Cc1c[nH]c3ccccc13)NC(=O)[C@@H](N)CCCCN)C(=O)N[C@@H](Cc1ccccc1)C(=O)N[C@@H](CCCNC(=N)N)C(=O)N[C@@H](C(C)C)C(=O)N2 [TP III, tachyplesin III] (H-KWCFRVCYRGICYRKCR-OH; disulfide 3-16, 7-12 (inferred); N-terminus assumed) | 0.5 µM | 0.5 µM | 16 µM | 20% | 0.5 µM | 35.5 min |  | 

— PMC6315362, “Cytotoxic Potential of the Novel Horseshoe Crab Peptide Polyphemusin III” (Marine Drugs, 2018)
